Source: PMC6753144, “Exploiting biofilm phenotypes for functional characterization of hypothetical genes in Enterococcus faecalis” (NPJ Biofilms and Microbiomes, 2019)

Target: T1, Bph-H6 (Bph, OG1RF_10435, biofilm phosphatase) (Enterococcus faecalis, UniProt A0ACD6T9Q6)
T1 construct: full length, 177 residues, C-terminal His6 tag (pET28b+, NcoI/XhoI), expressed in E. coli BL21(DE3), Ni-NTA purified
Assay: malachite green phosphate release assay
Type: biochemical
Settings: 10 mM Mn2+, pH 7.5, 37 °C, 1 h, 1 µM enzyme, 100 µM substrate

T1 sequence (A0ACD6T9Q6 entry or part of it): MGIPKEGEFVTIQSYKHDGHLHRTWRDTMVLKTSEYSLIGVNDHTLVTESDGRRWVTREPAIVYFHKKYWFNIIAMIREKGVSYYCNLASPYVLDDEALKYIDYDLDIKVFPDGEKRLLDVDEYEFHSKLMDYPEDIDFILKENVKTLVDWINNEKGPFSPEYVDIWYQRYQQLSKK

In the case of Nc1ncnc2c1ncn2[C@@H]1O[C@H](COP(=O)(O)OP(=O)(O)OP(=O)(O)O)[C@@H](O)[C@H]1O [ATP], the “malachite green phosphate release assay” value is reported as “Bph-H6 had in vitro phosphatase activity on nucleoside triphosphate, nucleoside diphosphate, and deoxynucleoside phosphate substrates”.
In the case of Nc1nc2c(ncn2[C@@H]2O[C@H](COP(=O)(O)OP(=O)(O)O)[C@@H](OP(=O)(O)OP(=O)(O)O)[C@H]2O)c(=O)[nH]1 [ppGpp], the “malachite green phosphate release assay” value is reported as “We also detected phosphatase activity against ppGpp, the second messenger”.
